Experimental data taken from patent publication US12226424B2, “Target protein degradation compounds, their anti-tumor use, their intermediates and use of intermediates” (ShanghaiTech University, priority 2018, dated 2025).
Where two headings read alike, the source gives them in different places.

Tests used:
ALK protein = ALK protein (Homo sapiens, UniProt Q9UM73); test: Western-blot half degradation concentration (DC50) of ALK protein in H3122 cells; format: cell-based; details: 24 h drug treatment, read-out: DC50 (nM)/ H3122 cell line
Method: ALK-positive SR cells (human large cell immunoblastic lymphoma) were purchased from the American Type Culture Collection (ATCC); H3122 cells (human non-small cell lung cancer) were from the Shanghai University of Science and Technology Lin Haifan's research group.
The cells used in this present disclosure were cultured in a 37° C. incubator containing 5% CO2.
DC50 (drug concentration corresponding to protein degradation to 50%) calculation: according to the gray value of the corresponding Western blotting band after drug treatment, fitting the relationship curve between drug concentration and gray value to calculate the drug concentration range corresponding to half of the gray value.

MV-4-11 cells = test: Half inhibitory concentration (IC50) on BET-expressing tumor cells, CCK-8, MV-4-11
Method: Determination of the Half Inhibitory Concentration (IC50) of PROTAD Compounds on Tumor Cells
MV-411 cells, MM1S cells and SR cells were seeded in 100 μL IMDM/RPMI1640/DMEM complete medium at a density of 15000/10000 cells/well; MDA-MB-231 cells, MDA-MB-468 cells, and MDA-MB453 cells were seeded in 100 μL IMDM/RPMI1640/DMEM complete medium at a density of 3000/5000 cells/well, respectively. 100 μL of the inoculated cells were treated with 0.5 μL diluted PROTAD compounds of the present disclosure to be tested at 10 successively decreasing concentrations (starting at the highest concentration of 10 μM; 5-fold serial dilutions). After the cells were treated with the tested drugs 48/72 h, the cell viability was determined according to the CCK-8 reagent manual. The negative control was DMSO, and the positive control was a commercial inhibitor. After CCK-8 treatment for 2 h, the value of O.D.450 was measured using a microplate reader.

[1] = tested on: K562 cells (BCR-ABL positive); test: Half inhibitory concentration (IC50) on tumor cells, CCK-8, K562; details: Homo sapiens, K562, 48 h, read-out: IC50 (nM)/K562 cell line
[2] = Homo sapiens, MV4-11, read-out: IC50 (nM)/MV-4-11 cell line, MV-4-11 cells, 48/72 h, CCK-8
[3] = read-out: IC50 (nM)/MV-4-11 cell line, MV-4-11 cells, 48/72 h, CCK-8

Chain of ALK protein (Q9UM73 with tags, fused parts or gaps): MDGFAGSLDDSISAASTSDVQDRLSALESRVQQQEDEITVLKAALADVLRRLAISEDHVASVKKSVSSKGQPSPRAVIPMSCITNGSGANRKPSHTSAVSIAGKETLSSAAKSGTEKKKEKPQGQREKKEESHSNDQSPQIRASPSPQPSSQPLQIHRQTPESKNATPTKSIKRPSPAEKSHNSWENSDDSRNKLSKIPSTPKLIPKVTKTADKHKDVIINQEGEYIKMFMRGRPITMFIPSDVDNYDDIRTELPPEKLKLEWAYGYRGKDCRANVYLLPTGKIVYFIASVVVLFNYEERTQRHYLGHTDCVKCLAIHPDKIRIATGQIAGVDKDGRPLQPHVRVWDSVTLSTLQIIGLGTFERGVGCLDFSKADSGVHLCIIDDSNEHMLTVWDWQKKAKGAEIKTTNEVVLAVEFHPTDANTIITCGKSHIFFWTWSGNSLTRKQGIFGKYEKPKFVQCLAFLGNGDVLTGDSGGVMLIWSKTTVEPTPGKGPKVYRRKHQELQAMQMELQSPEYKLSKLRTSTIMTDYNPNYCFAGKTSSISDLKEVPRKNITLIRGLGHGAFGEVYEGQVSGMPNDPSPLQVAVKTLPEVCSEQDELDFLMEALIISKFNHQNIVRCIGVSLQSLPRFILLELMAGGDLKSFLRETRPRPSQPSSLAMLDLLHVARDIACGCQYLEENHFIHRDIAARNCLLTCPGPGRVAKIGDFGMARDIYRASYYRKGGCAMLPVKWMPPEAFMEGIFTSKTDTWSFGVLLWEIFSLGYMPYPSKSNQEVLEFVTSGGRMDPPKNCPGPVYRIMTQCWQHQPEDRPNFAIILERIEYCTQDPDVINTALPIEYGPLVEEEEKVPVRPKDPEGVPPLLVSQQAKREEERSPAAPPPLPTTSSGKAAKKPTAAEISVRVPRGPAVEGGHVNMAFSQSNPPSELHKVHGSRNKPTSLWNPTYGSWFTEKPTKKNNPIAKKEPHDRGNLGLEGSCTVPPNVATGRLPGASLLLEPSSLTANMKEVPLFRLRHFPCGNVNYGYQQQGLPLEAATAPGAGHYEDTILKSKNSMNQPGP

SMILES | IC50 (MV-4-11 cells; [2]) [nM] | IC50 [1] [nM] | further results
CCc1cc2c(cc1N1CCN(C(=O)CSc3cccc4c3C(=O)N(C3CCC(=O)NC3=O)C4=O)CC1)C(C)(C)c1[nH]c3cc(C#N)ccc3c1C2=O (stereo not shown) [SIAIS164068, 8-(4-(2-((2-(2,6-dioxopiperidin-3-yl)-1,3-dioxoisoindolin-4-yl)thio)acetyl)piperazin-1-yl)-9-ethyl-6,6-dimethyl-11-oxo-6,11-dihydro-5H-benzo[b]carbazole-3-carbonitrile] |  |  | DC50 (ALK protein): 104 nM
CCc1cc2c(cc1N1CCN(C(=O)CCSc3cccc4c3C(=O)N(C3CCC(=O)NC3=O)C4=O)CC1)C(C)(C)c1[nH]c3cc(C#N)ccc3c1C2=O (stereo not shown) [SIAIS164069, 8-(4-(3-((2-(2,6-dioxopiperidin-3-yl)-1,3-dioxoisoindolin-4-yl)thio)propanoyl)piperazin-1-yl)-9-ethyl-6,6-dimethyl-11-oxo-6,11-dihydro-5H-benzo[b]carbazole-3-carbonitrile] |  |  | DC50 (ALK protein): 100 to 500 nM
CCc1cc2c(cc1N1CCN(C(=O)CCCSc3cccc4c3C(=O)N(C3CCC(=O)NC3=O)C4=O)CC1)C(C)(C)c1[nH]c3cc(C#N)ccc3c1C2=O (stereo not shown) [SIAIS164070, 8-(4-(4-((2-(2,6-dioxopiperidin-3-yl)-1,3-dioxoisoindolin-4-yl)thio)butanoyl)piperazin-1-yl)-9-ethyl-6,6-dimethyl-11-oxo-6,11-dihydro-5H-benzo[b]carbazole-3-carbonitrile] |  |  | DC50 (ALK protein): 100 to 500 nM
Cc1sc2c(c1C)C(c1ccc(Cl)cc1)=N[C@@H](CC(=O)NCCOCCSc1cccc3c1CN(C1CCC(=O)NC1=O)C3=O)c1nnc(C)n1-2 (stereo partly drawn) [SIAIS213100, 2-((S)-4-(4-chlorophenyl)-2,3,9-trimethyl-6H-thieno[3,2-f][1,2,4]triazolo[4,3-a][1,4]diazepin-6-yl)-N-(2-(2-((2-(2,6-dioxopiperidin-3-yl)-1-oxoisoindolin-4-yl)thio)ethoxy)ethyl)acetamide] | 0.5 ± 0.1 |  | 
Cc1sc2c(c1C)C(c1ccc(Cl)cc1)=N[C@@H](CC(=O)N1CCNCC1)c1nnc(C)n1-2 [SIAIS213113] | 21.6 |  | IC50 (MV-4-11 cells; [3]): 12.9 nM
Cc1sc2c(c1C)C(c1ccc(Cl)cc1)=N[C@@H](CC(=O)N1CCN(CCCSc3cccc4c3CN(C3CCC(=O)NC3=O)C4=O)CC1)c1nnc(C)n1-2 (stereo partly drawn) [SIAIS213117, 3-(4-((3-(4-(2-((S)-4-(4-chlorophenyl)-2,3,9-trimethyl-6H-thieno[3,2-f][1,2,4]triazolo[4,3-a][1,4]diazepin-6-yl)acetyl)piperazin-1-yl)propyl)thio)-1-oxoisoindolin-2-yl)piperidine-2,6-dione] | 0.063 |  | IC50 (MV-4-11 cells; [3]): 0.041 nM
Cc1sc2c(c1C)C(c1ccc(Cl)cc1)=N[C@@H](CC(=O)NCCN1CCNCC1)c1nnc(C)n1-2 [SIAIS213130] | 29.8 |  | IC50 (MV-4-11 cells; [3]): 17.7 nM
Cc1sc2c(c1C)C(c1ccc(Cl)cc1)=N[C@@H](CC(=O)NCCN1CCN(CCCCCSc3cccc4c3CN(C3CCC(=O)NC3=O)C4=O)CC1)c1nnc(C)n1-2 (stereo partly drawn) [SIAIS213133, 2-((S)-4-(4-chlorophenyl)-2,3,9-trimethyl-6H-thieno[3,2-f][1,2,4]triazolo[4,3-a][1,4]diazepin-6-yl)-N-(2-(4-(5-((2-(2,6-dioxopiperidin-3-yl)-1-oxoisoindolin-4-yl)thio)pentyl)piperazin-1-yl)ethyl)acetamide] | 0.036 ± 0.045 |  | 
Cc1sc2c(c1C)C(c1ccc(Cl)cc1)=N[C@@H](CC(=O)NCCN1CCN(CCCSc3cccc4c3CN(C3CCC(=O)NC3=O)C4=O)CC1)c1nnc(C)n1-2 (stereo partly drawn) [SIAIS213136, 2-((S)-4-(4-chlorophenyl)-2,3,9-trimethyl-6H-thieno[3,2-f][1,2,4]triazolo[4,3-a][1,4]diazepin-6-yl)-N-(2-(4-(3-((2-(2,6-dioxopiperidin-3-yl)-1-oxoisoindolin-4-yl)thio)propyl)piperazin-1-yl)ethyl)acetamide] | 0.068 |  | IC50 (MV-4-11 cells; [3]): 0.04 nM
Cc1sc2c(c1C)C(c1ccc(Cl)cc1)=N[C@@H](CC(=O)N1CCN(CCCCSc3cccc4c3CN(C3CCC(=O)NC3=O)C4=O)CC1)c1nnc(C)n1-2 (stereo partly drawn) [SIAIS213138, 3-(4-((4-(4-(2-((S)-4-(4-chlorophenyl)-2,3,9-trimethyl-6H-thieno[3,2-f][1,2,4]triazolo[4,3-a][1,4]diazepin-6-yl)acetyl)piperazin-1-yl)butyl)thio)-1-oxoisoindolin-2-yl)piperidine-2,6-dione] | 0.084 |  | IC50 (MV-4-11 cells; [3]): 0.051 nM
Cc1ccc(C(=O)Nc2ccc(CN3CCN(C(=O)CCCCSc4cccc5c4C(=O)N(C4CCC(=O)NC4=O)C5=O)CC3)c(C(F)(F)F)c2)cc1C#Cc1cnc2cccnn12 (stereo not shown) [SIAIS220048, N-(4-((4-(5-((2-(2,6-dioxopiperidin-3-yl)-1,3-dioxoisoindolin-4-yl)thio)pentanoyl)piperazin-1-yl)methyl)-3-(trifluoromethyl)phenyl)-3-(imidazo[1,2-b]pyridazin-3-ylethynyl)-4-methylbenzamide] |  | 4.06 | 
Cc1ccc(C(=O)Nc2ccc(CN3CCN(C(=O)CCCCCSc4cccc5c4C(=O)N(C4CCC(=O)NC4=O)C5=O)CC3)c(C(F)(F)F)c2)cc1C#Cc1cnc2cccnn12 (stereo not shown) [SIAIS220049, N-(4-((4-(6-((2-(2,6-dioxopiperidin-3-yl)-1,3-dioxoisoindolin-4-yl)thio)hexanoyl)piperazin-1-yl)methyl)-3-(trifluoromethyl)phenyl)-3-(imidazo[1,2-b]pyridazin-3-ylethynyl)-4-methylbenzamide] |  | 5.75 | 
Cc1ccc(C(=O)Nc2ccc(CN3CCN(C(=O)CCCCCCSc4cccc5c4C(=O)N(C4CCC(=O)NC4=O)C5=O)CC3)c(C(F)(F)F)c2)cc1C#Cc1cnc2cccnn12 (stereo not shown) [SIAIS220050, N-(4-((4-(7-((2-(2,6-dioxopiperidin-3-yl)-1,3-dioxoisoindolin-4-yl)thio)heptanoyl)piperazin-1-yl)methyl)-3-(trifluoromethyl)phenyl)-3-(imidazo[1,2-b]pyridazin-3-ylethynyl)-4-methylbenzamide] |  | 12.8 | 
Cc1ccc(C(=O)Nc2ccc(CN3CCN(C(=O)CCSc4cccc5c4CN(C4CCC(=O)NC4=O)C5=O)CC3)c(C(F)(F)F)c2)cc1C#Cc1cnc2cccnn12 (stereo not shown) [SIAIS220052, N-(4-((4-(3-((2-(2,6-dioxopiperidin-3-yl)-1-oxoisoindolin-4-yl)thio)propanoyl)piperazin-1-yl)methyl)-3-(trifluoromethyl)phenyl)-3-(imidazo[1,2-b]pyridazin-3-ylethynyl)-4-methylbenzamide] |  | 2.62 | 
Cc1ccc(C(=O)Nc2ccc(CN3CCN(C(=O)CCCCCSc4cccc5c4CN(C4CCC(=O)NC4=O)C5=O)CC3)c(C(F)(F)F)c2)cc1C#Cc1cnc2cccnn12 (stereo not shown) [SIAIS220055, N-(4-((4-(6-((2-(2,6-dioxopiperidin-3-yl)-1-oxoisoindolin-4-yl)thio)hexanoyl)piperazin-1-yl)methyl)-3-(trifluoromethyl)phenyl)-3-(imidazo[1,2-b]pyridazin-3-ylethynyl)-4-methylbenzamide] |  | 5.58 | 
Cc1ccc(C(=O)Nc2ccc(CN3CCN(C(=O)CCCCCCSc4cccc5c4CN(C4CCC(=O)NC4=O)C5=O)CC3)c(C(F)(F)F)c2)cc1C#Cc1cnc2cccnn12 (stereo not shown) [SIAIS220056, N-(4-((4-(7-((2-(2,6-dioxopiperidin-3-yl)-1-oxoisoindolin-4-yl)thio)heptanoyl)piperazin-1-yl)methyl)-3-(trifluoromethyl)phenyl)-3-(imidazo[1,2-b]pyridazin-3-ylethynyl)-4-methylbenzamide] |  | 5.98 | 

Now from value to molecule, other results behind:

IC50 (MV-4-11 cells; [2]) [nM] | IC50 [1] [nM] | SMILES | further results
0.027 ± 0.006 |  | Cc1sc2c(c1C)C(c1ccc(Cl)cc1)=N[C@@H](CC(=O)NCCN1CCN(CCCCSc3cccc4c3CN(C3CCC(=O)NC3=O)C4=O)CC1)c1nnc(C)n1-2 (stereo partly drawn) [SIAIS213139, 2-((S)-4-(4-chlorophenyl)-2,3,9-trimethyl-6H-thieno[3,2-f][1,2,4]triazolo[4,3-a][1,4]diazepin-6-yl)-N-(2-(4-(4-((2-(2,6-dioxopiperidin-3-yl)-1-oxoisoindolin-4-yl)thio)butyl)piperazin-1-yl)ethyl)acetamide] | 
 | 1.78 | Cc1ccc(C(=O)Nc2ccc(CN3CCN(C(=O)CSc4cccc5c4CN(C4CCC(=O)NC4=O)C5=O)CC3)c(C(F)(F)F)c2)cc1C#Cc1cnc2cccnn12 (stereo not shown) [SIAIS220051, N-(4-((4-(2-((2-(2,6-dioxopiperidin-3-yl)-1-oxoisoindolin-4-yl)thio)acetyl)piperazin-1-yl)methyl)-3-(trifluoromethyl)phenyl)-3-(imidazo[1,2-b]pyridazin-3-ylethynyl)-4-methylbenzamide] | 
 | 4.06 | Cc1ccc(C(=O)Nc2ccc(CN3CCN(C(=O)CCCSc4cccc5c4CN(C4CCC(=O)NC4=O)C5=O)CC3)c(C(F)(F)F)c2)cc1C#Cc1cnc2cccnn12 (stereo not shown) [SIAIS220053, N-(4-((4-(4-((2-(2,6-dioxopiperidin-3-yl)-1-oxoisoindolin-4-yl)thio)butanoyl)piperazin-1-yl)methyl)-3-(trifluoromethyl)phenyl)-3-(imidazo[1,2-b]pyridazin-3-ylethynyl)-4-methylbenzamide] | 
 | 2.68 | Cc1ccc(C(=O)Nc2ccc(CN3CCN(C(=O)CCCCSc4cccc5c4CN(C4CCC(=O)NC4=O)C5=O)CC3)c(C(F)(F)F)c2)cc1C#Cc1cnc2cccnn12 (stereo not shown) [SIAIS220054, N-(4-((4-(5-((2-(2,6-dioxopiperidin-3-yl)-1-oxoisoindolin-4-yl)thio)pentanoyl)piperazin-1-yl)methyl)-3-(trifluoromethyl)phenyl)-3-(imidazo[1,2-b]pyridazin-3-ylethynyl)-4-methylbenzamide] | 
